One may read the IC50 as the concentration that gives 50% inhibition.

The record followed here is patent publication US12037345B2, “Heterobicyclic compounds for inhibiting the activity of SHP2” (TAIHO PHARMACEUTICAL CO., LTD., priority 2018, dated 2024).

Assay [1] concerns pERK (phospho-p44/42 ERK) in HCC827 cells. In words: Cellular pERK Inhibition Assay, Method A (In-Cell Western). It is filed as cell-based. The note with it: Homo sapiens. The protocol:
Cellular pERK Inhibition Assay
pERK levels were determined using the In-Cell Western assay. HCC827 cells (ATCC, Manassas, USA) were seeded into 384-well plates at a density of 1×10^4 cells/well in RPMI1640 medium supplemented with 10% FBS and incubated 24h. Compounds were diluted first in DMSO and then into serum-free medium, before being added to cells in quadruplicate to give a final concentration of 0.2% DMSO. Plates were incubated at 37° C. for the indicated time in a humidified atmosphere of 5% CO2 in air.
Following compound treatment, cells were fixed with formalin neutral buffer solution for 20 minutes at room temperature. Plates were washed three times with 0.1% Triton-X in PBS and cells were blocked for 1 hour with Odyssey blocking buffer (LI-COR, #927-40000). After shaking out blocking buffer, cells were incubated with phospho-p44/42 ERK antibody (Cell Signalling Technology, #4370, 1:200) diluted in Odyssey blocking buffer at 4° C. overnight. Plates were washed again and cells were incubated for 1 hour with Goat anti-Rabbit […] (LI-COR, #926-32211, 1:800) diluted in Odyssey blocking buffer. After washing and removing wash solution completely using a centrifuge machine, cells were scanned on the Odyssey (LI-COR), following the manufacturer's instructions. The average signal from blank wells (no cells added) was subtracted from the signals from each sample well. Levels of pERK were then expressed as percent of control, using DMSO treated samples as control. The relative IC50 values were calculated in quadruplicate from the normalized dose-response plots using four parameter logistic curve fit. The Experiment for each compound was carried out in one time or multiple times, and the IC50 values were shown as a single value (for a compound measured in a single experiment) or an average value (for a compound measured in multiple experiments).

For assay [2], the target named is SHP2 (Homo sapiens (Human), UniProt Q06124). The experiment in a line: SHP2 Biochemical Assay (DiFMUP conversion, pIRS1-activated). As to the method:
SHP2 activity was monitored by measuring the conversion of the surrogate substrate 6,8-difluoromethylumbelliferyl phosphate (DiFMUP) to the fluorescent product, 6,8-difluoromethylumbelliferone (DiFMU).
SHP2 was pre-incubated with test compounds and the activating peptide pIRS1 (H2N-LN(pY)IDLDLV-(PEG)8-LST(pY)ASINFQK-amide) for 30 min, prior to addition of the 6,8-difluoromethylumbelliferyl phosphate (DiFMUP), (Thermo Fisher D6567). Final assay concentrations were 10 pM SHP2, […] pIRS1 peptide, 50 μM DiFMUP, 25 mM Bis-Tris propane, pH 7.0, 150 mM NaCl, 0.05% (v/v) Tween-20, 0.5 mM TCEP and 5% (v/v) DMSO. Rates of reaction were then measured over 30 min by monitoring fluorescence on a BMG Pherastar reader at excitation 360 nm/emission 450 nm. IC50 values were calculated in singlicate from the normalized dose-response plots using four parameter logistic curve fit. The Experiment for each compound was carried out in one time or multiple times, and the IC50 values were shown as a single value (for a compound measured in a single experiment) or an average value (for a compound measured in multiple experiments).

Where [3] appears, read: Table 19, head prints unit as "-M", read-out: pERK (IC50) Method A.
Where [4] appears, read: Table 19, head prints unit as "-M".
The mark [5] stands for this setting: Table 20, read-out: pERK (IC50, μM) Method A.

Structures are written as SMILES. Read-outs that look alike come from different tables or passages of the source.

SHP2, sequence (Q06124 whole entry): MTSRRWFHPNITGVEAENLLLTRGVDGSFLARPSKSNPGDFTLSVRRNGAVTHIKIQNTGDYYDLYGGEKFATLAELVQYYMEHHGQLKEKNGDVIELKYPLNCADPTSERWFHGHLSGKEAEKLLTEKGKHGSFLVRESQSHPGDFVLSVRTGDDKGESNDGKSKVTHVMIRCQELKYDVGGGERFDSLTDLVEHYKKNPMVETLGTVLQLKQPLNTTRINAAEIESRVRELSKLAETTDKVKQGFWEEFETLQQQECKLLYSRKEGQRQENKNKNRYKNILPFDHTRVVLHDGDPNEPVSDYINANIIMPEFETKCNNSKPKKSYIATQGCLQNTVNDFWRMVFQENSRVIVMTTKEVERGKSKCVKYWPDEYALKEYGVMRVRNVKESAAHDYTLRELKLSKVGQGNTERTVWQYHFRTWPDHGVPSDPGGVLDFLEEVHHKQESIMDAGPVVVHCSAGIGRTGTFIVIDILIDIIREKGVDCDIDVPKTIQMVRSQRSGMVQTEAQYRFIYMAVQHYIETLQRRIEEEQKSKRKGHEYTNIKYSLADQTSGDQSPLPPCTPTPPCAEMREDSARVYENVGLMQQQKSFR

On to `Cn1cc2c(Cl)c(-c3c[nH]c4nc(N5[C@@H]6CC[C@H]5[C@H](F)[C@H](N)C6)n(C)c(=O)c34)ccc2n1` (racemic) [Example 26, rac-2-((1S,2R,3R,5R)-3-amino-2-fluoro-8-azabicyclo[3.2.1]octan-8-yl)-5-(4-chloro-2-methyl-2H-indazol-5-yl)-3-methyl-3,7-dihydro-4H-pyrrolo[2,3-d]pyrimidin-4-one], for which the half-inhibitory concentration (IC50) in assay [1] (setting [3]) came to 0.088 µM; in assay [2] (setting [4]), 11 nM.
The corresponding values for `CCn1cc2c(Cl)c(-c3n[nH]c4nc(N5C[C@@H]6CC[C@H]5[C@H]6N)n(C)c(=O)c34)ccc2n1` (racemic) [Example 125, rac-6-((1S,4S,7S)-7-amino-2-azabicyclo[2.2.1]heptan-2-yl)-3-(4-chloro-2-ethyl-2H-indazol-5-yl)-5-methyl-1,5-dihydro-4H-pyrazolo[3,4-d]pyrimidin-4-one] are 0.26 µM and 17 nM.
The corresponding values for `Cn1nc2ccc(-c3n[nH]c4nc(N5C[C@@H]6CC[C@H]5[C@H]6N)n(C)c(=O)c34)c(Cl)c2c1Cl` (racemic) [Example 126, rac-6-((1S,4S,7S)-7-amino-2-azabicyclo[2.2.1]heptan-2-yl)-3-(3,4-dichloro-2-methyl-2H-indazol-5-yl)-5-methyl-1,5-dihydro-4H-pyrazolo[3,4-d]pyrimidin-4-one] are 0.084 µM and 13 nM.
The corresponding values for `Cn1c(N2C[C@@H]3CC[C@H]2[C@H]3N)nc2[nH]nc(-c3ccc4ncsc4c3Cl)c2c1=O` (racemic) [Example 134, rac-((1S,4S,7S)-7-amino-2-azabicyclo[2.2.1]heptan-2-yl)-3-(7-chlorobenzo[d]thiazol-6-yl)-5-methyl-1,5-dihydro-4H-pyrazolo[3,4-d]pyrimidin-4-one] are 0.083 µM and 4 nM.
Take `CN[C@H]1[C@H]2CC[C@@H]1N(c1nc3[nH]cc(-c4ccc5nn(C)cc5c4Cl)c3c(=O)n1C)C2` (racemic) [Example 135, rac-5-(4-chloro-2-methyl-2H-indazol-5-yl)-3-methyl-2-((1S,4S,7S)-7-(methylamino)-2-azabicyclo[2.2.1]heptan-2-yl)-3,7-dihydro-4H-pyrrolo[2,3-d]pyrimidin-4-one]: the results for the IC50 in assay [1] (setting [3]) and in assay [2] (setting [4]) were 0.95 µM and 48 nM, respectively.
Consider `Cn1cc2c(Cl)c(-c3c[nH]c4nc(N5[C@H]6CC[C@@H]5[C@@H](N)C6)n(C)c(=O)c34)ccc2n1` (racemic) [Example 164, 2-(rac-(1R,2S,4S)-2-amino-7-azabicyclo[2.2.1]heptan-7-yl)-5-(4-chloro-2-methyl-2H-indazol-5-yl)-3-methyl-3,7-dihydro-4H-pyrrolo[2,3-d]pyrimidin-4-one], for which the IC50 in assay [1] (setting [5]) is 6.3 µM; in assay [2] (Table 20), 170 nM.
On to `Cn1nc2ccc(-c3c[nH]c4nc(N5[C@H]6CC[C@@H]5[C@](C)(N)C6)n(C)c(=O)c34)c(Cl)c2c1Cl` (racemic) [Example 173, rac-2-((1R,2R,4S)-2-amino-2-methyl-7-azabicyclo[2.2.1]heptan-7-yl)-5-(3,4-dichloro-2-methyl-2H-indazol-5-yl)-3-methyl-3,7-dihydro-4H-pyrrolo[2,3-d]pyrimidin-4-one], for which the figures for the 50% inhibitory concentration (IC50) in assay [1] (setting [5]) and in assay [2] (Table 20) were 0.14 µM and 2.5 nM, respectively.
The corresponding values for `Cn1nc2ccc(-c3n[nH]c4nc(N5[C@H]6CC[C@@H]5[C@](C)(N)C6)n(C)c(=O)c34)c(Cl)c2c1Cl` (racemic) [Example 175, rac-6-((1R,2R,4S)-2-amino-2-methyl-7-azabicyclo[2.2.1]heptan-7-yl)-3-(3,4-dichloro-2-methyl-2H-indazol-5-yl)-5-methyl-1,5-dihydro-4H-pyrazolo[3,4-d]pyrimidin-4-one] are 0.22 µM and 12 nM.
In the case of `Cn1cc2c(Cl)c(-c3c[nH]c4nc(N5C[C@H]6CC[C@@H]5[C@@H]6N)n(C)c(=O)c34)ccc2n1` (stereo in doubt) [Example 157, rel-2-((1R,4R,7R)-7-Amino-2-azabicyclo[2.2.1]heptan-2-yl)-5-(4-chloro-2-methyl-2H-indazol-5-yl)-3-methyl-3,7-dihydro-4H-pyrrolo[2,3-d]pyrimidin-4-one], the IC50 in assay [1] (setting [3]) amounted to 0.022 µM; in assay [2] (setting [4]), 3.7 nM.
The corresponding values for `Cn1cc2c(Cl)c(-c3c[nH]c4nc(N5C6CCC5CNC6)n(C)c(=O)c34)ccc2n1` [Example 1, 2-(3,8-diazabicyclo[3.2.1]octan-8-yl)-5-(4-chloro-2-methyl-2H-indazol-5-yl)-3-methyl-3,7-dihydro-4H-pyrrolo[2,3-d]pyrimidin-4-one] are 0.14 µM and 14 nM.
For `CCn1cc2c(Cl)c(-c3c[nH]c4nc(N5CCC(C)(CN)CC5)n(C)c(=O)c34)ccc2n1` [Example 2, 2-(4-(aminomethyl)-4-methylpiperidin-1-yl)-5-(4-chloro-2-ethyl-2H-indazol-5-yl)-3-methyl-3,7-dihydro-4H-pyrrolo[2,3-d]pyrimidin-4-one], the IC50 is 0.13 µM in assay [1] (setting [3]) and 14 nM in assay [2] (setting [4]).
The corresponding values for `CCn1cc2c(Cl)c(-c3c[nH]c4nc(N5CCC(C)(N)CC5)n(C)c(=O)c34)ccc2n1` [Example 3, 2-(4-amino-4-methylpiperidin-1-yl)-5-(4-chloro-2-ethyl-2H-indazol-5-yl)-3-methyl-3,7-dihydro-4H-pyrrolo[2,3-d]pyrimidin-4-one] are 0.21 µM and 15 nM.
The corresponding values for `CCn1cc2c(Cl)c(-c3c[nH]c4nc(N5[C@@H]6CC[C@H]5C[C@H](N)C6)n(C)c(=O)c34)ccc2n1` [Example 4, 2-(exo-3-amino-8-azabicyclo[3.2.1]octan-8-yl)-5-(4-chloro-2-ethyl-2H-indazol-5-yl)-3-methyl-3,7-dihydro-4H-pyrrolo[2,3-d]pyrimidin-4-one] are 0.12 µM and 7.5 nM.
The corresponding values for `CCn1cc2c(Cl)c(-c3c[nH]c4nc(N5[C@@H]6CC[C@H]5C[C@@H](N)C6)n(C)c(=O)c34)ccc2n1` [Example 5, 2-(endo-3-amino-8-azabicyclo[3.2.1]octan-8-yl)-5-(4-chloro-2-ethyl-2H-indazol-5-yl)-3-methyl-3,7-dihydro-4H-pyrrolo[2,3-d]pyrimidin-4-one] are 0.16 µM and 7.5 nM.
In the case of `CCc1nc2ccc(-c3c[nH]c4nc(N5[C@@H]6CC[C@H]5C[C@@H](N)C6)n(C)c(=O)c34)c(Cl)c2s1` [Example 6, 2-(endo-3-amino-8-azabicyclo[3.2.1]octan-8-yl)-5-(7-chloro-2-ethylbenzo[d]thiazol-6-yl)-3-methyl-3,7-dihydro-4H-pyrrolo[2,3-d]pyrimidin-4-one], the IC50 in assay [1] (setting [3]) is 0.58 µM; in assay [2] (setting [4]), 6.5 nM.
The corresponding values for `Cc1nc2ccc(-c3c[nH]c4nc(N5[C@@H]6CC[C@H]5C[C@@H](N)C6)n(C)c(=O)c34)c(Cl)c2s1` [Example 7, 2-(endo-3-amino-8-azabicyclo[3.2.1]octan-8-yl)-5-(7-chloro-2-methylbenzo[d]thiazol-6-yl)-3-methyl-3,7-dihydro-4H-pyrrolo[2,3-d]pyrimidin-4-one] are 0.17 µM and 9 nM.
With `Cn1nc2ccc(-c3c[nH]c4nc(N5C[C@H]6CC[C@@H]5[C@@H]6N)n(C)c(=O)c34)c(Cl)c2c1Cl` [Example 172, 2-((1R,4R,7R)-7-amino-2-azabicyclo[2.2.1]heptan-2-yl)-5-(3,4-dichloro-2-methyl-2H-indazol-5-yl)-3-methyl-3,7-dihydro-4H-pyrrolo[2,3-d]pyrimidin-4-one], the half-inhibitory concentration (IC50) in assay [1] (setting [5]) worked out at 0.016 µM.
